Experimental data published in patent US12583855B2, “RET selective inhibitor, preparation method therefor and use thereof” (SHOUYAO HOLDINGS (BEIJING) CO., LTD., priority 2019, dated 2026).

What was measured:
RET^WT = molecular target: T1, RET^WT (Homo sapiens, UniProt P07949); experiment: In vitro enzymatic activity assay on RET^WT (HTRF); type: biochemical; settings: GST-RET^WT (658-1114 aa) 0.5 nM, ATP 25 μM
T1 construct: GST-RET^WT (658-1114 aa, final concentration of 0.5 nM)
T1 sequence (P07949 658-1114): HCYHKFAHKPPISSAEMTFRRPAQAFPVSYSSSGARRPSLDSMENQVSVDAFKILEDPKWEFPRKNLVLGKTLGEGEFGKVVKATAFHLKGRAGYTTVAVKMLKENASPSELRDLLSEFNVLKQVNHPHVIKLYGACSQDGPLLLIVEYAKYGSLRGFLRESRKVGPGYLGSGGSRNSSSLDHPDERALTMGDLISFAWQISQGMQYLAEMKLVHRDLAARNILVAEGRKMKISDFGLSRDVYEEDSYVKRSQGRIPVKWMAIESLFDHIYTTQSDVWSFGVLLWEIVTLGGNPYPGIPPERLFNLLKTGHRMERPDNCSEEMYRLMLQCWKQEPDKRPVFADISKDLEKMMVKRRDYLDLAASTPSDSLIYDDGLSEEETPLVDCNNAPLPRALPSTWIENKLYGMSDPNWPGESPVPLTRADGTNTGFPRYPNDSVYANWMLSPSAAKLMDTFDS
Method: 1. In Vitro Enzymatic Activity Assay for Compounds on RET^WT
The compounds were diluted 5-fold with 100% DMSO starting from 0.2 mM (7 concentrations in total), and 2 μL of each concentration was added to 48 μL of reaction buffer (50 mM HEPES pH7.5, 0.1 mM Na3VO4, 5 mM MgCl2. 1 mM DTT, 0.001% Tween 20, and 100 μg/ml BSA) for dilution and mixing.
The 384-well plate was placed in an incubator and reacted at 23° C. for 2 h before the reaction was stopped by the addition of 5 μL of TK Antibody (purchased from Cisbio) and 5 μL of Streptavidin-XL665 (purchased from Cisbio). […] The enzymatic activity signal of RET^WT was measured at 7 concentrations for each compound and the data were calculated using GraphPad Prism software to obtain the IC50 value for the compound.

VEGFR2 = VEGFR2 (Homo sapiens, UniProt P35968); experiment: In vitro enzymatic activity assay on VEGFR2 (HTRF); type: biochemical; settings: GST-VEGFR2 0.1 nM, ATP 2.5 μM
Method: 3. n Vitro Enzymatic Activity Assay for Compounds on VEGFR2
The compounds were diluted 5-fold with 100% DMSO starting from 1 mM (7 concentrations in total), and 2 μL of each concentration was added to 48 μL of reaction buffer (50 mM HEPES pH 7.5, 0.1 mM Na3VO4, 5 mM MgCl2, 1 mM MnCl2, 1 mM DTT, 0.001% Tween 20, and 100 μg/ml BSA) for dilution and mixing. 2.5 μL of compounds and 5 μL of GST-VEGFR2 (final concentration of 0.1 nM) were added to a 384-well plate (OptiPlate-384, purchased from PerkinElmer), the mixture was mixed by centrifugation, and 2.5 μL of ATP (final concentration of 2.5 μM) and TK Peptide Substrate mixture (final concentration of 1 μM, purchased from Cisbio) were added to start the reaction, with a total reaction volume of 10 μL. The 384-well plate was placed in an incubator and reacted at 23° C. for 1.5 h before the reaction was stopped by the addition of 5 μL of TK Antibody (purchased from Cisbio) and 5 μL of Streptavidin-XL665 (purchased from Cisbio). After further incubation in the incubator for 1 h. fluorescence values (excitation at 320 nm, detecting emitted light at 665 nm and 620 nm, and a ratio of the two as an enzyme activity signal) were read on Envision (purchased from PerkinElmer). The enzymatic activity signal of VEGFR2 was measured at 7 concentrations for each compound and the data were calculated using GraphPad Prism software to obtain the IC50 value for the compound.

Sequence of VEGFR2 (P35968 20-1356): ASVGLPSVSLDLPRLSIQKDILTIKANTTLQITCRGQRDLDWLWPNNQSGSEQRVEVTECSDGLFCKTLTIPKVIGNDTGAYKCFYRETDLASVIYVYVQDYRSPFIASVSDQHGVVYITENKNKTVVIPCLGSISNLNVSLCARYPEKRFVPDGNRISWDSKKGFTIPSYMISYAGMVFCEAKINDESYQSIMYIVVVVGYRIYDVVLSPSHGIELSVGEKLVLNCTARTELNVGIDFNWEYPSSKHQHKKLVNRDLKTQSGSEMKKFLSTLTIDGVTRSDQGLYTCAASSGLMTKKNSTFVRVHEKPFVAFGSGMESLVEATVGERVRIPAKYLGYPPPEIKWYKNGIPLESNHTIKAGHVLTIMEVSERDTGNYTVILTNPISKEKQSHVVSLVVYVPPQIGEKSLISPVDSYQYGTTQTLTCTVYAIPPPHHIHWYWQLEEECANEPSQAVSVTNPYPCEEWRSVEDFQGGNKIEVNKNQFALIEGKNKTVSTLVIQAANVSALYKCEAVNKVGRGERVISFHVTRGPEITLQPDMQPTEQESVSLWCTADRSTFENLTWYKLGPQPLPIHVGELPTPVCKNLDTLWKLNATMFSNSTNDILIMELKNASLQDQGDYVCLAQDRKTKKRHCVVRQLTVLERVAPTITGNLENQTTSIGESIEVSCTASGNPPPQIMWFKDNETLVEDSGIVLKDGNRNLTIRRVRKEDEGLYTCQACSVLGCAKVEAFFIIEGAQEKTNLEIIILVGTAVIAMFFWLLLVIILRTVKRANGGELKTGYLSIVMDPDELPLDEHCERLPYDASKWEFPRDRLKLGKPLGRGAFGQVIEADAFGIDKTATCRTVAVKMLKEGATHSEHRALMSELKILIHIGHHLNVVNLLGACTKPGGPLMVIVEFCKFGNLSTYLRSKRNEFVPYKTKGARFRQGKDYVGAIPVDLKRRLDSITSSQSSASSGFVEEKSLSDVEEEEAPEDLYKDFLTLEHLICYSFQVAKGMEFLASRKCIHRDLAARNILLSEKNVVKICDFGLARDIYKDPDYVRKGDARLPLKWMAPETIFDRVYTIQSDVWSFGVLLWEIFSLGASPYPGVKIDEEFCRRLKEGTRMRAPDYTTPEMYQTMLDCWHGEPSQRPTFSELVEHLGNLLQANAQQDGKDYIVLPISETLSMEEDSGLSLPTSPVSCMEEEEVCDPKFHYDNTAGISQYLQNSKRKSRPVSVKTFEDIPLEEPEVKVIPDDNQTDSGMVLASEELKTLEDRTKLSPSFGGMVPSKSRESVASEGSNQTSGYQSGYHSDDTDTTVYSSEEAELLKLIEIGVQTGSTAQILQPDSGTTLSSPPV

SMILES | IC50 (RET^WT) | IC50 (VEGFR2)
CSc1ccc(CN2C3CC2CN(c2ccc(-c4cc(OCC(C)(C)O)cn5ncc(C#N)c45)cn2)C3)cn1 [Example 11, 6-(2-hydroxy-2-methylpropoxy)-4-(6-(6-((6-(methylthio)pyridin-3-yl)methyl)-3,6-diazabicyclo[3.1.1]heptan-3-yl)pyridin-3-yl)pyrazolo[1,5-a]pyridine-3-carbonitrile] | 1.73 nM | 37 nM
CCSc1ccc(CN2CCN(c3ccc(-c4cc(-c5cnn(C)c5)cn5ncc(C#N)c45)cn3)CC2)cn1 [Example 18, 6-(1-methyl-1Hpyrazol-4-yl)-4(6-(4-((6-(ethylthio)pyridin-3-yl)methyl)piperazin-1-yl)pyridin-3-yl)pyrazolo[1,5-a]pyridine-3-carbonitnile] |  | 13 nM
COc1ccc(CN2CCN(c3ccc(-c4cc(N5CCOCC5)cn5ncc(C#N)c45)cn3)CC2)cn1 [Example 19, 6-(morpholino-1-yl)-4-(6-(4-((6-methoxypyridin-3-yl)methyl)piperazin-1-yl)pyridin-3-yl)pyrazolo[1,5-a]pyridine-3-carbonitrile] | 0.636 nM | 94 nM
COc1ccc(CN2C3CC2CN(c2ccc(-c4cc(N5CC(OC)C5)cn5ncc(C#N)c45)cn2)C3)cn1 [Example 27, 6-(3-methoxyazetidin-1-yl)-4-(6-(6-((6-methoxypyridin-3-yl)methyl)-3,6-diazabicyclo[3.1.1]heptan-3-yl)pyridin-3-yl)pyrazolo[1,5-a]pyridine-3-carbonitrile] | 0.536 nM | 2.28 nM
CC(C)(O)COc1cc(-c2ccc(N3CC4CC(C3)N4Cc3ccc(S(C)(=O)=O)cc3)nc2)c2c(C#N)cnn2c1 [Example 38, 6-(2-hydroxy-2-methylpropoxy)-4-(6-(6-(4-(methylsulfonyl)benzyl)-3,6-diazabicyclo[3.1.1]heptan-3-yl)pyridin-3-yl)pyrazolo[1,5-a]pyridine-3-carbonitrile] | 0.419 nM | 40.3 nM
CS(=O)(=O)c1ccc(CN2CCN(c3ccc(-c4cc(N5CC(C#N)C5)cn5ncc(C#N)c45)cn3)CC2)cc1 [Example 40, 6-(3-cyanoazetidin-1-yl)-4-(6-(4-(4-(methylsulfonyl)benzyl)piperazin-1-yl)pyridin-3-yl)pyrazolo[1,5-α]pyridin-3-carbonitrile] | 1.31 nM | 
CCn1cc(-c2cc(-c3ccc(N4CC5CC(C4)N5Cc4ccc(S(C)(=O)=O)cc4)nc3)c3c(C#N)cnn3c2)cn1 [Example 44, 6-(1-ethyl-1Hpyrazol-4-yl)-4-(6-(6-(4-(methylsulfonyl)benzyl)-3,6-diazabicyclo[3.1.1]heptan-3-yl)pyridin-3 yl)pyrazolo[1,5-a]pyridine-3-carbonitrile] | 0.247 nM | 
CS(=O)(=O)c1ccccc1CN1CCN(c2ccc(-c3cc(-c4cnn(C(F)F)c4)cn4ncc(C#N)c34)cn2)CC1 [Example 48, 6-(1-difluoromethyl-1Hpyrazol-4-yl)-4-(6-(4-(2-(methylsulfonyl)benzyl)piperazin-1-yl)pyridin-3-yl)pyrazolo[1,5-a]pyridine-3-carbonitrile] | 0.57 nM | 10.1 nM
CS(=O)(=O)c1ccc(CN2CCN(c3ccc(-c4cc(-c5cnn(C(F)F)c5)cn5ncc(C#N)c45)cn3)CC2)cc1 [Example 49, 6-(1-difluoromethyl-1Hpyrazol-4-yl)-4(6-(4-(4-(methylsulfonyl)benzyl)piperazin-1-yl)pyridin-3-yl)pyrazolo[1,5-a]pyridine-3-carbonitrile] | 0.94 nM | 18.2 nM
CSc1ccc(CN2C3CC2CN(c2ccc(-c4cc(-c5cnn(C)c5)cn5ncc(C#N)c45)cn2)C3)cn1 [Example 50, 6-(1-methyl-1Hpyrazol-4-yl)-4-(6-(6-((6-(methylthio)pyridin-3-yl)methyl)-3,6-diazabicyclo[3.1.1]heptan-3-yl)pyridin-3-yl)pyrazolo[1,5-a]pyridine-3-carbonitrile] | 0.181 nM | 
CSc1cccc(CN2CCN(c3ccc(-c4cc(-c5cnn(C)c5)cn5ncc(C#N)c45)cn3)CC2)n1 [Example 51, 6-(1-methyl-1Hpyrazol-4-yl)-4-(6-(4-((6-(methylthio)pyridin-2-yl)methyl)piperazin-1-yl)pyridin-3-yl)pyrazolo[1,5-a]pyridine-3-carbonitrile] | 0.328 nM | 6.2 nM
CN(C)C(=O)Cn1cc(-c2cc(-c3ccc(N4CCN(Cc5ccc(S(C)(=O)=O)cc5)CC4)nc3)c3c(C#N)cnn3c2)cn1 [Example 54] | 1.07 nM | 10.1 nM
Cn1cc(-c2cc(-c3ccc(N4CC5CCC(C4)N5Cc4ccc(S(C)(=O)=O)cc4)nc3)c3c(C#N)cnn3c2)cn1 [Example 57, 6-(1-methyl-1Hpyrazol-4-yl) 4-(6-(8-(4-(methylsulfonyl)benzyl)-3,8-diazabicyclo[3.2.1]octan-3-yl)pyridin-3-yl)pyrazolo[1,5-a]pyridine-3-carbonitrile] |  | 8.94 nM
COc1ncc(CN2C3CC2CN(c2ccc(-c4cc(N5CC(C)(O)C5)cn5ncc(C#N)c45)cn2)C3)cn1 [Example 58, 6-(3-hydroxy-3-methylazetidin-1-yl)-4-(6-(6-((2-methoxypyrimidin-5-yl)methyl)-3,6-diazabicyclo[3.1.1]heptan-3-yl)pyridin-3-yl)pyrazolo[1,5-a]pyridine-3-carbonitrile] | 1.34 nM | 
CSc1ccc(CN2C3CC2CN(c2ccc(-c4cc(-c5cnn(C)c5)cn5ncc(C#N)c45)cn2)C3)cc1 [Example 59, 6-(1-methyl-1Hpyrazol-4-yl)-4-(6-(6-(4-(methylthio)benzyl)-3,6-diazabicyclo[3.1.1]heptan-3-yl)pyridin-3-yl)pyrazolo[1,5-a]pyridine-3-carbonitrile] | 0.066 nM | 0.154 nM
COC/C=C/C(=O)N1C2CC1CN(c1ccc(-c3cc(-c4cnn(C(F)F)c4)cn4ncc(C#N)c34)cn1)C2 [Example 62, (E)-6-(1-(difluoromethyl)-1Hpyrazol-4-yl)-4-(6-(6-(4-methoxybut-2-enoyl)-3,6-diazabicyclo[3.1.1]heptan-3-yl)pyridin-3-yl)pyrazolo[1,5-a]pyridine-3-carbonitrile] | 1.11 nM | 
CS(=O)(=O)c1ccc(CN2CCN(c3ccc(-c4cc(-c5cnn(C(F)F)c5)cn5ncc(C#N)c45)cn3)CC2)cn1 [Example 63, 6-(1-(difluoromethyl)-1Hpyrazol-4-yl)-4-(6-(4-((6-(methylsulfonyl)pyridin-3-yl)methyl)piperazin-1-yl)pyridin-3-yl)pyrazolo[1,5-a]pyridine-3-carbonitrile] | 2.96 nM | 
CSc1ccc(CN2CCN(c3ccc(-c4cc(-c5cnn(C(F)F)c5)cn5ncc(C#N)c45)cn3)CC2)cn1 [Example 75, 6-(1-(difluoromethyl)-1Hpyrazol-4-yl)-4-(6-(4-((6-(methylthio)pyridin-3-yl)methyl)piperazin-1-yl)pyridin-3-yl) pyrazolo[1,5-a] pyridine-3-carbonitrile] | 0.943 nM | 
CS(=O)(=O)c1ccc(CN2CCN(c3ccc(-c4cc(-c5cnn(C(F)F)c5)cn5ncc(C#N)c45)cn3)CC2)nc1 [Example 80, 6-(1-(difluoromethyl)-1Hpyrazol-4-yl)-4-(6-(4-((5-(methylsulfonyl)pyridin-2-yl)methyl)piperazin-1-yl)pyridin-3-yl) pyrazolo[1,5-a] pyridine-3-carbonitrile] | 1.58 nM | 
CSc1ccc(CN2CCN(c3ccc(-c4cc(-c5cnn(C(F)F)c5)cn5ncc(C#N)c45)cn3)CC2)cc1 [Example 81, 4-(6-(4-(4-(methylthio)benzyl)piperazin-1-yl)pyridin-3-yl)-6-(1-(difluoromethyl)-1Hpyrazol-4-yl)pyrazolo[1,5-a]pyridine-3-carbonitrile] | 1.33 nM | 
